Common to all, as to type: cell-based
In one assay the test system is Bacillus cereus. The assay is described as follows: Agar plate disc-diffusion, antibacterial. The settings on record: nutrient agar, 37° C., 48 hours. As to the method:
(§1) The agar plate disc-diffusion method was applied. […] The discs were then placed onto the surface of agar plates (nutrient agar for bacteria and Sabouraud's dextrose agar for fungi) seeded with the test organism. Each plate contained 15 mL of the agar medium, previously seeded with 0.2 mL of the broth culture of each organism pregrown for 18 hours. The plates were incubated at 37° C. for 48 hours, and 72 hours for fungi. The inhibition zones was measured in mm. Discs impregnated with DMSO were used as a control, and its inhibition zone was subtracted from the tested compound actual inhibition zone.

The next assay relates to Escherichia coli. The experiment in a line: Agar plate disc-diffusion, antibacterial. The settings on record: nutrient agar, 37° C., 48 hours. Here is the method: as §1
For the next assay, the system named is Pseudomonas aeruginosa. The assay is described as follows: Agar plate disc-diffusion, antibacterial. Conditions: nutrient agar, 37° C., 48 hours. As to the method:
as §1

Another assay relates to Staphylococcus aureus. The experiment in a line: Agar plate disc-diffusion, antibacterial. Conditions: nutrient agar, 37° C., 48 hours. Here is the method: as §1
The next assay has as its system Aspergillus flavus. The assay is described as follows: Agar plate disc-diffusion, antifungal. Conditions: Sabouraud's dextrose agar, 72 hours. As to the method: as §1
Assay [1] relates to Chrysosporium keratinophilum. The assay is described as follows: Agar plate disc-diffusion, antifungal. Conditions: Sabouraud's dextrose agar, 72 hours. As to the method: as §1
Where [2] appears, read: A = concentration of comp. = 10,000 μL.
Setting [3] is: B = concentration of comp. = 30,000 μL.
The mark [4] stands for this setting: C = concentration of comp. = 50,000 μL.
[5] abbreviates: A = concentration of comp. = 10,000 μg/mL.

Structures are written as SMILES.

Consider `O=C(O)c1cn(C2CC2)c2cc(N3CCNCC3)c(F)cc2c1=O` [Cip., ciprofloxacin], for which the inhibition zone in the assay on Bacillus cereus (setting [2]) is 29 mm; in the assay on Bacillus cereus (setting [3]), 31 mm; in the assay with Bacillus cereus (setting [4]) it was 42 mm; with Escherichia coli (setting [2]), 30 mm; in the assay on Escherichia coli (setting [3]) it was 39 mm; with Escherichia coli (setting [4]), 60 mm. Moreover, the inhibition zone in the assay on Pseudomonas aeruginosa (setting [5]) is recorded as 29 mm; in the assay on Pseudomonas aeruginosa (setting [3]), 30 mm; with Pseudomonas aeruginosa (setting [4]), 53 mm; in the assay with Staphylococcus aureus (setting [2]), 43 mm; in the assay with Staphylococcus aureus (setting [3]), 44 mm; in the assay with Staphylococcus aureus (setting [4]), 53 mm. Further, the inhibition zone turned out to be 29 mm in the assay on Aspergillus flavus (setting [2]); 32 mm in the assay on Aspergillus flavus (setting [3]); 42 mm with Aspergillus flavus (setting [4]); 29 mm in assay [1] (setting [2]); 30 mm in assay [1] (setting [3]); 53 mm in assay [1] (setting [4]).

Consider `COc1ccc(-c2nc(-c3ccc(Br)cc3)c(-c3ccc(Br)cc3)n2CCCC(=O)O)cc1` [V, 4-(4,5-bis(4-bromophenyl)-2-(4-methoxyphenyl)-1H-imidazol-1-yl)butanoic acid], for which the inhibition zone came to 28 mm in the assay with Bacillus cereus (setting [2]); 30 mm with Bacillus cereus (setting [3]); 41 mm in the assay on Bacillus cereus (setting [4]); 26 mm in the assay on Escherichia coli (setting [2]); 35 mm in the assay on Escherichia coli (setting [3]); 47 mm in the assay on Escherichia coli (setting [4]). Further, the inhibition zone with Pseudomonas aeruginosa (setting [5]) was 21 mm; with Pseudomonas aeruginosa (setting [3]), 24 mm; in the assay on Pseudomonas aeruginosa (setting [4]), 35 mm; with Staphylococcus aureus (setting [2]), 18 mm; with Staphylococcus aureus (setting [3]) it was 20 mm; in the assay on Staphylococcus aureus (setting [4]), 30 mm. Besides, the inhibition zone in the assay with Aspergillus flavus (setting [2]) turned out to be 19 mm; in the assay with Aspergillus flavus (setting [3]), 21 mm; in the assay on Aspergillus flavus (setting [4]), 32 mm; in assay [1] (setting [2]), 26 mm; in assay [1] (setting [3]), 28 mm; in assay [1] (setting [4]) it was 50 mm.

(Values after patent US11945783B1, “4-(4,5-bis(4-bromophenyl)-2-(4-methoxyphenyl)-1H-imidazol-1-yl)butanoic acid as an antimicrobial compound” (KING FAISAL UNIVERSITY, priority 2023, dated 2024).)
